According to US7019015B2, “Fungicide for plants” (Valent BioSciences, Inc., priority 2003, dated 2006):

Experiments:
Monilinia laxa = assay: Contact evaluation (microtiter plate), Monilinia laxa; assay type: cell-based
Description: (§1) Compound solution: Contact evaluations were conducted to determine the anti-fungal activity of each compound against Botrytis cinerea, Sclerotinia sclerotiorum, Pythium aphanidermatum, Rhizoctonia solani, Cercospora arachidicola, Mycosphaerella fijiensis, and Monilinia laxa. Five milligrams of each compound were dissolved in 0.5 milliliter of DMSO for a compound stock solution of 1.0% w/v. Compound stock solutions were serial diluted with DMSO to 20, 10, and 2 ppm final well concentration. Fungi preparation: Botrytis cinerea spores were taken from 6-week-old cultures grown at 22C on full strength potato dextrous agar (PDA) plates. Sclerotinia sclerotiorum, Pythium aphanidermatum, Rhizoctonia solani, and Monilinia laxa mycelia were taken from 4- to 10-day-old shake flask cultures grown at room temperature on full strength potato dextrous broth (PDB). Cercospora arachidicola mycelia were taken from 10- to 14-day-old shake flask cultures grown at room temperature on a full strength PDB amended with peanut oil. Mycosphaerella fijiensis mycelia were taken from 10- to 14-day-old shake flask cultures grown at room temperature on V8 juice broth. Sclerotinia sclerotiorum, Pythium aphanidermatum, Rhizoctonia solani, Cercospora arachidicola, and Mycosphaerella fijiensis mycelia (0.4 g mycelia) were blended for 45 seconds in 20 mL sterile de-ionized water. Monilinia laxa mycelia (1 g mycelia) was blended for 45 seconds in 30 mL of sterile de-ionized water. Botrytis cinerea spores were diluted with quarter strength PDB to 1×10^5 spores/mL final well concentration. All mycelia were diluted in water (1:5 mycelia:water) before distributing into the wells. Microtiter plate preparation: Compound solution (10 :L), quarter strength PDB (900 :L) and fungi preparation (100 :L) were sequentially distributed into 48-well microtiter plates (n=3 replications/compound/rate). A blank consisted of quarter strength PDB and fungi preparation. […] Final readings were the average of the three wells (Table 1).

Pythium aphanidermatum = assay: Contact evaluation (microtiter plate), Pythium aphanidermatum; assay type: cell-based
Description: as §1

[1] = system: Phaseolus vulgaris (Bush bean cv. Blue Lake 274) leaves; assay: Detached bean leaf bioassay, phytotoxicity rating; assay type: in vivo
Description: Compound solution: Compound solutions were prepared by diluting compound stock solutions (1.0% w/v compound in DMSO) to 200 ppm with 0.01% w/v Triton X-100. Plant material: Middle trifoliate leaves of greenhouse grown Phaseolus vulgaris (Bush bean cv. Blue Lake 274) were excised and placed on a plastic grid above a tray containing moist towels. Treatment method: One half of the adaxial surface of the leaf was treated with the compound solution (100 :L) using a 3 cm Bacti Cell Spreader. A blank consisted of 0.01% w/v Triton X-100. A commercial fungicide control (200 ppm diluted with water) consisted of Scala. After the solutions dried, the trays containing the leaves were covered and held one day in a growth chamber (22C). The adaxial surfaces of the leaves were then inoculated with 5–60 :L droplets of Botrytis cinerea spore solution. Phytotoxicity ratings: Phytotoxicity was rated as 0=no phytotoxicity, 1=slight phytotoxicity, 2=moderate phytotoxicity, or 3=excessive phytotoxicity (Table 2).

Botrytis cinerea [2] = assay: Detached bean leaf bioassay, fungal control; assay type: in vivo; settings: 200 ppm on detached bean leaf; 100 minus percent necrotic area, three days after inoculation
Description: Detached Bean Leaf Bioassay
Compound solution: Compound solutions were prepared by diluting compound stock solutions (1.0% w/v compound in DMSO) to 200 ppm with 0.01% w/v Triton X-100.
Spore solution preparation: Botrytis cinerea spores were taken from 6-week-old cultures grown at 22C on full strength potato dextrous agar (PDA) plates and harvested in 1:16 frozen orange juice concentrate:water. Botrytis cinerea spore solutions were prepared by diluting spore cultures to 5×10^4 spores/mL with 1:16 frozen orange juice concentrate:water.
Plant material: Middle trifoliate leaves of greenhouse grown Phaseolus vulgaris (Bush bean cv. Blue Lake 274) were excised and placed on a plastic grid above a tray containing moist towels.
Treatment method: One half of the adaxial surface of the leaf was treated with the compound solution (100 :L) using a 3 cm Bacti Cell Spreader. A blank consisted of 0.01% w/v Triton X-100. A commercial fungicide control (200 ppm diluted with water) consisted of Scala. […]
Fungal control rating: Three days after inoculation with Botrytis, the percent necrotic area under the inoculation droplet was determined. Since the areas under the blank (0.01% w/v Triton X-100) were 100% infected, fungal control was expressed as 100 minus the percent necrotic area, and thus 0% infected is 100% fungal control (n=3 leaves/compound, 5 inoculation droplets/leaf, Table 2).

Botrytis cinerea [3] = assay: Contact evaluation (microtiter plate), Botrytis cinerea; assay type: cell-based
Description: as §1

Rhizoctonia solani = assay: Contact evaluation (microtiter plate), Rhizoctonia solani; assay type: cell-based; settings: Rhizoctinia solani
Description: as §1

Mycosphaerella fijiensis = assay: Contact evaluation (microtiter plate), Mycosphaerella fijiensis; assay type: cell-based
Description: as §1

Sclerotinia sclerotiorum = assay: Contact evaluation (microtiter plate), Sclerotinia sclerotiorum; assay type: cell-based; settings: Sclerotinia scierotionum
Description: as §1

Cercospora arachidicola = assay: Contact evaluation (microtiter plate), Cercospora arachidicola; assay type: cell-based
Description: as §1

Structure (SMILES): COc1ccc(C2(OC)c3ccccc3N(c3ccccc3)c3ccccc32)cc1 [formula I, 9-phenyl-10-methoxy-10-(4-methoxyphenyl)-9,10-dihydroacridine]
- Control of fungi (full, partial, none) (Monilinia laxa; fungicide rate 2 ppm): Full
- Control of fungi (full, partial, none) (Monilinia laxa; fungicide rate 10 ppm): Full
- Control of fungi (full, partial, none) (Monilinia laxa; fungicide rate 20 ppm): Full
- Control of fungi (full, partial, none) (Pythium aphanidermatum; fungicide rate 2 ppm): Full
- Control of fungi (full, partial, none) (Pythium aphanidermatum; fungicide rate 10 ppm): Full
- Control of fungi (full, partial, none) (Pythium aphanidermatum; fungicide rate 20 ppm): Full
- Phytotoxity (200 ppm) [1]: Slight
- Botrytis cinerea control (200 ppm) (Botrytis cinerea [2]): 80%
- Control of fungi (full, partial, none) (Botrytis cinerea [3]; fungicide rate 2 ppm): Partial
- Control of fungi (full, partial, none) (Botrytis cinerea [3]; fungicide rate 10 ppm): Full
- Control of fungi (full, partial, none) (Botrytis cinerea [3]; fungicide rate 20 ppm): Full
- Control of fungi (full, partial, none) (Rhizoctonia solani; fungicide rate 2 ppm): Full
- Control of fungi (full, partial, none) (Rhizoctonia solani; fungicide rate 10 ppm): Full
- Control of fungi (full, partial, none) (Rhizoctonia solani; fungicide rate 20 ppm): Full
- Control of fungi (full, partial, none) (Mycosphaerella fijiensis; fungicide rate 2 ppm): None
- Control of fungi (full, partial, none) (Mycosphaerella fijiensis; fungicide rate 10 ppm): Partial
- Control of fungi (full, partial, none) (Mycosphaerella fijiensis; fungicide rate 20 ppm): Full
- Control of fungi (full, partial, none) (Sclerotinia sclerotiorum; fungicide rate 2 ppm): Partial
- Control of fungi (full, partial, none) (Sclerotinia sclerotiorum; fungicide rate 10 ppm): Full
- Control of fungi (full, partial, none) (Sclerotinia sclerotiorum; fungicide rate 20 ppm): Full
- Control of fungi (full, partial, none) (Cercospora arachidicola; fungicide rate 2 ppm): None
- Control of fungi (full, partial, none) (Cercospora arachidicola; fungicide rate 10 ppm): Full
- Control of fungi (full, partial, none) (Cercospora arachidicola; fungicide rate 20 ppm): Full
